This note sets out measurements from ChEMBL document CHEMBL1140120, “Discovery of biphenyl piperazines as novel and long acting muscarinic acetylcholine receptor antagonists” (J Med Chem, 2008).

As usually defined, the IC50 is the concentration that inhibits the measured activity by half. The low end stands for higher potency, the high end for lower potency. A word on the solubility: it is the dissolved amount per volume that the medium holds. The term inhibition denotes the drop in the measured response relative to a control, in per cent. A higher inhibition goes with a strong effect. Usually pKb stands for the negative decadic logarithm of the Kb, by convention in mol/L. What is called Ki is a measure of affinity in units of concentration, obtained from inhibition or displacement.

Converted amounts (≈) assume the structure as drawn. The source made the active and inactive calls. No cut-off for these calls is given here.

Data set [1] concerns the target T1, Muscarinic acetylcholine receptor M1 (Homo sapiens, UniProt P11229).
T1 sequence (P11229 whole entry): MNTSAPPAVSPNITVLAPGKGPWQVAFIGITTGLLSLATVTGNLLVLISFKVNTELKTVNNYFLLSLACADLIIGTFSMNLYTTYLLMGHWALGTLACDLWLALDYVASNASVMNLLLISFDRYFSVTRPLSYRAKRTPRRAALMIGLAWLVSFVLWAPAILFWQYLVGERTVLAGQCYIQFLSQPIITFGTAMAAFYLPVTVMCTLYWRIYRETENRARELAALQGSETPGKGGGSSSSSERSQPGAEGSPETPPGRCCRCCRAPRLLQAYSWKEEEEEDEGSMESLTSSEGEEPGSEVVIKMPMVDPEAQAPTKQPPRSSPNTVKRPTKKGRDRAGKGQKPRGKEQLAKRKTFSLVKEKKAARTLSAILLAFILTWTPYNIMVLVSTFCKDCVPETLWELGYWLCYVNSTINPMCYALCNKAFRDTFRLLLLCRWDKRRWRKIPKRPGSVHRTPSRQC
Nature of the data set: Antagonist activity at cloned muscarinic M1 receptor expressed in CHO cells assessed as acetylcholine-induced change in cytosolic calcium concentration by FLIPR assay. Format: functional, cell-based. The note with it: read-out: pA2 (converted).

In data set [2] the target is T2, Muscarinic acetylcholine receptor M3 (Homo sapiens, UniProt P20309). Nature of the data set: Antagonist activity at cloned muscarinic M3 receptor expressed in CHO cells assessed as acetylcholine-induced change in cytosolic calcium concentration by FLIPR assay. Format: functional, cell-based. To be noted: read-out: pA2 (converted).
Target sequence in this assay (P20309 whole entry): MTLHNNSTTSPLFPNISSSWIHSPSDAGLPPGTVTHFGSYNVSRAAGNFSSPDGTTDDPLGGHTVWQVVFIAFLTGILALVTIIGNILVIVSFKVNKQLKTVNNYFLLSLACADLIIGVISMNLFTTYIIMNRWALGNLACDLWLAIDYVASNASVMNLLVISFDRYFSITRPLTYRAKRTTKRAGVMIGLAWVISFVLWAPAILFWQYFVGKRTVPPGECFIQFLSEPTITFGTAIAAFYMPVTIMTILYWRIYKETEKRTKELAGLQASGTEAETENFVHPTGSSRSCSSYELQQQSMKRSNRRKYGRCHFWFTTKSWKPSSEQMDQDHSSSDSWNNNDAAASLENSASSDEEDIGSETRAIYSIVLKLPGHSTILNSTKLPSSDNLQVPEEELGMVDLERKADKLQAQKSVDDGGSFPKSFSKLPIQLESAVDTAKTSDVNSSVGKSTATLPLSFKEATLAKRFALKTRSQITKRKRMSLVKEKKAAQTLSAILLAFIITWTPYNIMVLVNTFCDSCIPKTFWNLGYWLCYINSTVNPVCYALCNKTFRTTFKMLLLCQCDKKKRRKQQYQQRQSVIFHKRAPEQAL
For data set [3], the target named is Muscarinic acetylcholine receptors; M2 & M3 (Homo sapiens) (UniProt P20309+P08172). Nature of the data set: Selectivity for human cloned muscarinic M3 receptor over human cloned muscarinic M2 receptor.
For data set [4], the target named is T3, Muscarinic acetylcholine receptor M2 (Homo sapiens, UniProt P08172).
T3 sequence (P08172 whole entry): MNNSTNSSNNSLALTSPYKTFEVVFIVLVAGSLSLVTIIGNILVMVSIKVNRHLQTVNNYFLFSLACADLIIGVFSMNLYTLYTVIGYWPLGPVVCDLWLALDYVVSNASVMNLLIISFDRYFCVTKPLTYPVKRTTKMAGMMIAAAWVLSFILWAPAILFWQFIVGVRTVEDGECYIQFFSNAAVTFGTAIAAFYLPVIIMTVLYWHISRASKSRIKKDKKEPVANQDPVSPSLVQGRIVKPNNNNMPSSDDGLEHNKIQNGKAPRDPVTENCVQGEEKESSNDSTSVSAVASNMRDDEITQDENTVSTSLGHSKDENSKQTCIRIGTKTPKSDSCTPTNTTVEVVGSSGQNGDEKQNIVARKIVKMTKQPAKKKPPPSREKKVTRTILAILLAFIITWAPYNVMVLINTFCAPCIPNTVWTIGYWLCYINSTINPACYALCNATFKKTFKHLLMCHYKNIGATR
Nature of the data set: Antagonist activity at cloned muscarinic M2 receptor-Gqi5 chimeric protein expressed in CHO cells assessed as acetylcholine-induced change in cytosolic calcium concentration by FLIPR assay. Format: functional, cell-based. The note with it: read-out: pA2 (converted).

Data set [5] deals with Muscarinic acetylcholine receptor M1 and M3 (Homo sapiens) (UniProt P20309+P11229). Nature of the data set: Selectivity for human cloned muscarinic M3 receptor over human cloned muscarinic M1 receptor.
Data set [6] relates to Mus musculus. Nature of the data set: Inhibition of methacholine-induced bronchoconstriction in intranasally single dosed conscious BALB/c mouse assessed by measuring enhanced pause at 5 ug after 5 hrs by barometric plethysmography relative to control. It is filed as functional.
Data set [7] relates to Mus musculus. Nature of the data set: Inhibition of methacholine-induced bronchoconstriction in intranasally single dosed conscious BALB/c mouse assessed by measuring enhanced pause at 5 ug after 15 mins by barometric plethysmography relative to control. Format: functional.
The test system of data set [8] is Mus musculus. Nature of the data set: Inhibition of methacholine-induced bronchoconstriction in intranasally single dosed conscious BALB/c mouse assessed by measuring enhanced pause at 5 ug after 24 hrs by barometric plethysmography relative to control. Format: functional.
The target of data set [9] is Cytochrome P450 2D6 (Homo sapiens, UniProt P10635). Nature of the data set: Inhibition of CYP2D6. Format: ADME.
Data set [10] is described as follows: Permeability across artificial phospholipid membrane. It is filed as ADME. To be noted: not told; read-out: permeability.
Data set [11] can be described thus: Aqueous solubility of the compound. Format: physicochemical. To be noted: buffer.
Data set [12] is described as follows: Inhibition of serotonin receptor at 10 uM.
Data set [13] deals with Cytochrome P450 2C9 (Homo sapiens, UniProt P11712). Nature of the data set: Inhibition of CYP2C9. It is filed as ADME.
Data set [14] can be described thus: Inhibition of alpha adrenergic receptor at 10 uM.
The test system of data set [15] is Mus musculus. Nature of the data set: Inhibition of methacholine-induced bronchoconstriction in intranasally single dosed conscious BALB/c mouse assessed by measuring enhanced pause at 5 ug after 72 hrs by barometric plethysmography relative to control. Format: functional.
For data set [16], the target named is T2, Muscarinic acetylcholine receptor M3. To be noted: CHO.
Target sequence in this assay (P20309 whole entry, looked up): as the sequence (P20309 whole entry) above
Description: Antagonist activity at cloned muscarinic M3 receptor expressed in CHO cells assessed as acetylcholine-induced change in cytosolic calcium concentration pretreated for 30 mins by FLIPR assay
In data set [17] the test system is Mus musculus. Nature of the data set: Inhibition of methacholine-induced bronchoconstriction in intranasally single dosed conscious BALB/c mouse assessed by measuring enhanced pause at 5 ug after 48 hrs by barometric plethysmography relative to control. It is filed as functional.
Data set [18] addresses T4, Cytochrome P450 1A2 (Homo sapiens, UniProt P05177).
T4 sequence (P05177 whole entry): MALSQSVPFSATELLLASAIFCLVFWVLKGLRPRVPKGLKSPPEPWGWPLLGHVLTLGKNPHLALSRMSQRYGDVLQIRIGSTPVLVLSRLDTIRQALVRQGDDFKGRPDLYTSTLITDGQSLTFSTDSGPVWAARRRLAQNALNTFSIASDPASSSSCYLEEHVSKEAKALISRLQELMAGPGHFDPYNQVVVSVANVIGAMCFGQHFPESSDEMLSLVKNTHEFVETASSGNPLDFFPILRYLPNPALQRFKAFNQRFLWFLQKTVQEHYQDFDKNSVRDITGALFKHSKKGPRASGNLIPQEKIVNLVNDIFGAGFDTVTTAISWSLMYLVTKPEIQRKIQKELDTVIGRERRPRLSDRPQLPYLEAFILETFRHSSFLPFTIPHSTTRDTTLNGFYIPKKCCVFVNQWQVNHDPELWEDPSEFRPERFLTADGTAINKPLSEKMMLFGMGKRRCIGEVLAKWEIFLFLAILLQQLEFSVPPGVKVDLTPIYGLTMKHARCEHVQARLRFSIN
Nature of the data set: Inhibition of CYP1A2. Format: ADME.

The target of data set [19] is Voltage-gated inwardly rectifying potassium channel KCNH2 (Homo sapiens, UniProt Q12809). Nature of the data set: Inhibition of human ERG.
Data set [20] addresses Cytochrome P450 3A4 (Homo sapiens, UniProt P08684). Nature of the data set: Inhibition of CYP3A4. It is filed as ADME.
Data set [21] deals with Cytochrome P450 2C19 (Homo sapiens, UniProt P33261). Nature of the data set: Inhibition of CYP2C19. Format: ADME.
Data set [22] is described as follows: Inhibition of opioid receptor at 10 uM.
Data set [23] concerns the target T2, Muscarinic acetylcholine receptor M3. Nature of the data set: Displacement of [3H]N-methyl Scopolamine from human cloned muscarinic M3 receptor expressed in CHO cells by scintillation proximity assay. It is filed as cell-based. On the technique in general: In a radioligand displacement assay an active substance lowers the binding of a labelled ligand.
Target sequence in this assay (P20309 whole entry): as the sequence (P20309 whole entry) above
Data set [24] shares this target. Nature of the data set: Inhibition of human cloned muscarinic M3 receptor expressed in CHO cells by FLIPR assay. Format: cell-based.
Target sequence in this assay (P20309 whole entry): as the sequence (P20309 whole entry) above
The target in data set [25] is T1, Muscarinic acetylcholine receptor M1. Nature of the data set: Inhibition of human cloned muscarinic M1 expressed in CHO cells by FLIPR assay. It is filed as cell-based.
In data set [26] the target is T3, Muscarinic acetylcholine receptor M2. Nature of the data set: Inhibition of human cloned muscarinic M2 receptor-Gqi5 chimeric protein expressed in CHO cells by FLIPR assay. It is filed as cell-based.

Chain of Muscarinic acetylcholine receptors; M2 & M3 (Homo sapiens) (P20309 whole entry, looked up, one chain of several): as the sequence (P20309 whole entry) above
Chain of Muscarinic acetylcholine receptor M1 and M3 (Homo sapiens) (P20309 whole entry, looked up, one chain of several): as the sequence (P20309 whole entry) above
Chain of Cytochrome P450 3A4 (P08684 whole entry): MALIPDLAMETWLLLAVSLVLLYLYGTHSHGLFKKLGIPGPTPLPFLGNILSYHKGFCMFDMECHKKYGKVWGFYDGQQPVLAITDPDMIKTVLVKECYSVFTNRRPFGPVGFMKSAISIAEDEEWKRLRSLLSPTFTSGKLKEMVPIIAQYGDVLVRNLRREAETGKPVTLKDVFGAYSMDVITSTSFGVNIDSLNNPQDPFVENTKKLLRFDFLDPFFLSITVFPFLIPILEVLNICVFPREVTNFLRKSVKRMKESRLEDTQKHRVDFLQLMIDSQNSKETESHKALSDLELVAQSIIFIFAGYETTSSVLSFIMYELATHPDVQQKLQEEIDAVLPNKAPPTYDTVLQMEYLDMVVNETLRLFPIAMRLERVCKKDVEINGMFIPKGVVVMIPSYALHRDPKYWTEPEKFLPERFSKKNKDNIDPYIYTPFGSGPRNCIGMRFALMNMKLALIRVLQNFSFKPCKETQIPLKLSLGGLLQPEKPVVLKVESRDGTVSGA
Chain of Voltage-gated inwardly rectifying potassium channel KCNH2 (Q12809 whole entry): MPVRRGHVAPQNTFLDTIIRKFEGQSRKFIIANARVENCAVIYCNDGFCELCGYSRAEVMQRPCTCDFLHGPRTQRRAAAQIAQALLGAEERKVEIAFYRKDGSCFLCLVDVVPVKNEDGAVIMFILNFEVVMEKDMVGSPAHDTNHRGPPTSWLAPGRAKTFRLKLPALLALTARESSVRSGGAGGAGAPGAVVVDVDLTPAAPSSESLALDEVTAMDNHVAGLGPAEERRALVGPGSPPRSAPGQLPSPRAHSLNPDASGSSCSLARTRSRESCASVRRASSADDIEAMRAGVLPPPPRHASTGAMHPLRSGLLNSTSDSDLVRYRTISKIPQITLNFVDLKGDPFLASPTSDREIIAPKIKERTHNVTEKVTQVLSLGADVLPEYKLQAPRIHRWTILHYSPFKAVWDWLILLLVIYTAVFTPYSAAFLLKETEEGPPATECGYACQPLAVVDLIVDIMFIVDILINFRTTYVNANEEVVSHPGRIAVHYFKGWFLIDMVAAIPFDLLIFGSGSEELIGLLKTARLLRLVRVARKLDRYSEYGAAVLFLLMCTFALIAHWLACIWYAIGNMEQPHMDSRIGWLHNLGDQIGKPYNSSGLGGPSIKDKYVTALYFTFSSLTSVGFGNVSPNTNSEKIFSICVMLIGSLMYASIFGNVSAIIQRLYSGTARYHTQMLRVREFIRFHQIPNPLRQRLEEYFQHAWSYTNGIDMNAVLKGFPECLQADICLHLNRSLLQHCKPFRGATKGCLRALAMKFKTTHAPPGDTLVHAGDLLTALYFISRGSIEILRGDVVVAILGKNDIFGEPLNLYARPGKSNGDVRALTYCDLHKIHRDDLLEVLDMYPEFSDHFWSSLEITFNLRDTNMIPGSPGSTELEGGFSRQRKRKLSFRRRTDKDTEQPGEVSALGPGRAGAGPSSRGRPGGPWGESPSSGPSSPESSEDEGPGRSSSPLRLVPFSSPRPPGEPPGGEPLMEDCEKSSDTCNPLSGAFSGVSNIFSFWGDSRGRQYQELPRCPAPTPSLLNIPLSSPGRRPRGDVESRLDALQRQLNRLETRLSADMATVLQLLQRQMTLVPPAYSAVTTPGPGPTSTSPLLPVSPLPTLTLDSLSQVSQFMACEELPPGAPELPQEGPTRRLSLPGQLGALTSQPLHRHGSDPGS
Chain of Cytochrome P450 2C9 (P11712 whole entry): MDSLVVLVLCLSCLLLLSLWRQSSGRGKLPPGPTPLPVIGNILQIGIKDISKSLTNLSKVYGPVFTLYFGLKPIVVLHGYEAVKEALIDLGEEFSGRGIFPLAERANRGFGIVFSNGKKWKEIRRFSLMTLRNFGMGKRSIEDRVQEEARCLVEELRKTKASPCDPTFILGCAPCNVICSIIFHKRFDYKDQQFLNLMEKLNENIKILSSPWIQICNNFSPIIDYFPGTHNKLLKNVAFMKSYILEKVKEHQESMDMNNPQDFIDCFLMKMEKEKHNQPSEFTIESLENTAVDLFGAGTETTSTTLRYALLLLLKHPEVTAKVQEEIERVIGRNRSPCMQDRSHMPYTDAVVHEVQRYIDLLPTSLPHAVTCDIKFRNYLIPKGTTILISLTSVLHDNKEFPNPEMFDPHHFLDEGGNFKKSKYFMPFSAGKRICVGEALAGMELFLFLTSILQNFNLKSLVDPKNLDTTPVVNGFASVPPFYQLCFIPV
Chain of Cytochrome P450 2C19 (P33261 whole entry): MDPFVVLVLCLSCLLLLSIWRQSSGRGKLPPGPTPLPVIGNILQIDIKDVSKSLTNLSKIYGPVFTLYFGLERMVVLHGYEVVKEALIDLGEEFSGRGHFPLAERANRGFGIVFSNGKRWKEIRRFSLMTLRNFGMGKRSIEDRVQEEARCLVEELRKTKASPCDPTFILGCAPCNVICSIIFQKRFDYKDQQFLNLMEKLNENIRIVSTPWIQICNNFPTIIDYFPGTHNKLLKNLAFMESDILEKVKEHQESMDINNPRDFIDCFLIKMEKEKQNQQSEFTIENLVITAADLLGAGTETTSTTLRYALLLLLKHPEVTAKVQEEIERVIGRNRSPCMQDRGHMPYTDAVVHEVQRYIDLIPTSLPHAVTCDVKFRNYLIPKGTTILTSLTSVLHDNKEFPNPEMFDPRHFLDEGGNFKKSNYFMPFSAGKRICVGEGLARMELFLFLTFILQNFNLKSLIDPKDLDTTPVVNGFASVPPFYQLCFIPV
Chain of Cytochrome P450 2D6 (P10635 whole entry): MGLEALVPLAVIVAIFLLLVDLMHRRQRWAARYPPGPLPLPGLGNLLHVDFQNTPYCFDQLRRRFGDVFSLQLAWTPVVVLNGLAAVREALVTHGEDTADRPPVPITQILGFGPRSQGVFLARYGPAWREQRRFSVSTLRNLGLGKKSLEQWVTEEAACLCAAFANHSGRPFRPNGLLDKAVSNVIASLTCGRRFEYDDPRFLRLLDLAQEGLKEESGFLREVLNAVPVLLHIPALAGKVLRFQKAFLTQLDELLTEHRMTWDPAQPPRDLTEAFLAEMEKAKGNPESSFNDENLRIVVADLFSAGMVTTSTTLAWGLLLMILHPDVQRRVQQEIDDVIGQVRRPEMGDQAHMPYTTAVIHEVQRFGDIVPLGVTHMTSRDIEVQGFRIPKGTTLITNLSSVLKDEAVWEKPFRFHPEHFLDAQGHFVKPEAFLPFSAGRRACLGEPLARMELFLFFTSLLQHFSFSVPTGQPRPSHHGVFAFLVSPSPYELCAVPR

For the compound `C[C@H]1CN(Cc2cccc(-c3cc(CNC(=O)c4cccc(CN5CCNCC5)c4)ccc3F)c2)CCN1`, the results for the Kb in data set [1], in data set [2] and in data set [4] were 1 nM, 0.158 nM and 63.1 nM, respectively. The Ratio in data set [3] was 400; in data set [5], 6.

Take `CC(=O)c1cccc(C(=O)NCc2ccc(F)c(-c3cccc(CN4CCN[C@@H](C)C4)c3)c2)c1`: the Kb in [1] was 2.51 nM; in [2] it was 0.0501 nM; in data set [4], 100 nM. Further, the “inhibition (INH)” value in [6] is 45%. The Ratio in data set [3] turned out to be 2000; in [5], 50. Moreover, the result in data set [7] was Active.

For the compound `C[C@H]1CN(Cc2cccc(-c3cc(CNC(=O)c4cccc(CN5CC[N+](C)(C)CC5)c4)ccc3F)c2)CCN1.O=C([O-])C(F)(F)F`, the Kb is 2 nM in data set [1] and 12.6 nM in data set [4]. The “inhibition (INH)” value in data set [6] worked out at 85%; in data set [7] it was 95%. In addition, the Ratio in data set [3] was determined as 80. In addition, the outcome in [8] was inactive.

For `C[C@H]1CN(Cc2cccc(-c3cc(CNC(=O)c4cccc(CC5CCNCC5)c4)ccc3F)c2)CCN1`, the 50% inhibitory concentration (IC50) in data set [9] was greater than 10000 nM; in [13] it was greater than 10000 nM; in [18], greater than 10000 nM; in [19], 10000 nM; in data set [20], greater than 10000 nM; in data set [21], greater than 10000 nM. Also, in [10], the Papp is less than 0.3 ×10⁻⁶ cm/s. Moreover, the Kb in data set [1] is 2.51 nM; in data set [2], 0.01 nM; in data set [4] it was 5.01 nM. The “inhibition (INH)” value in data set [6] worked out at 94%; in [7] it was 96%; in data set [15], 25%; in data set [17], 25%; in data set [8], 40%. Moreover, the solubility in data set [11] was found to be 200 µM (≈ 103 µg/mL). In addition, the inhibition in data set [12], in [14] and in data set [22] was 70% each time. The Ratio in data set [3] is 500; in [5] it was 20. In [16], this compound registered a negative-log Kb (pKb) of 10.5. Moreover, the inhibition constant (Ki) in data set [23] is 0.0316 nM.

With `O=C(NCc1cccc(-c2cccc(CN3CCNCC3)c2)c1)c1ccc2c(c1)OCO2`, the half-inhibitory concentration (IC50) in [24] was 31.6 nM; in [25], 158 nM; in data set [26] it was greater than 3160 nM. Also, the Ratio in [3] is 100; in data set [5] it was 5.

`CCC(=O)c1cccc(C(=O)NCc2ccc(F)c(-c3cccc(CN4CCN[C@@H](C)C4)c3)c2)c1`: the values for the Kb in data set [1], in [2] and in [4] were 1 nM, 0.0501 nM and 25.1 nM, respectively. The “inhibition (INH)” value in data set [6] is on record as 20%. For the same compound, the result in [7] was Active.

With `C[C@H]1CN(Cc2cccc(-c3cc(CNC(=O)c4cccc(C#N)c4)ccc3F)c2)CCN1`, the figures for the Kb in data set [1], in data set [2] and in data set [4] were 7.94 nM, 0.251 nM and 316 nM, respectively.
